Where a SMILES comes first, the peptide text is derived from it. [ ]: non-standard residue; d: D form. The star is where a group is joined. Bip(2'-Et,4'-O(CH2)4NH2) = CCc1cc(OCCCCN)ccc1-c1ccc(C[C@H](N)C(=O)O)cc1; Malonyl(2,2-Me2,histaminyl) = CC(C)(C(=O)NCCc1cnc[nH]1)C(=O)*; Nva(5-(3,5-Me2Ph)) = Cc1cc(C)cc(CCC[C@H](N)C(=O)O)c1; Ala(1H-tetrazol-5-yl) = N[C@@H](Cc1nnn[nH]1)C(=O)O; αMePhe(2-F) = C[C@](N)(Cc1ccccc1F)C(=O)O; Desaminohistidyl = O=C(CCc1c[nH]cn1)*; X1 = O=C(CCCCCc1cnc[nH]1)*; NHPh = c1ccc(N*)cc1
Columns and labels:
[1] = molecular target: human glucagon-like peptide 2 receptor (GLP2R) (Homo sapiens (Human), UniProt O95838); assay: CRE-luciferase reporter bioassay, HEK293/Myc-hGLP2R/Cre-Luc cell line; format: cell-based; conditions: HEK293/Myc-hGLP2R/Cre-Luc
Method: Cells were incubated overnight at 37° C. in 5% CO2. […] Plates were incubated for 5.5 h at 37° C. in 5% CO2. For end-point measurement, 100 μL/well of One-Glo reagent (Promega, #E6051) was added and plates were kept at room temperature for 5-10 minutes. Luciferase activity was measured on Envision Multilabel Plate Reader (Perkin Elmer) in Luminescent mode. The relative light units (RLU) values were obtained and the results were analyzed using nonlinear regression with GraphPad Prism software (GraphPad).

human GLP1R [2] = molecular target: T1, human GLP1R (Homo sapiens (Human), UniProt P43220); assay: Human GLP1R cAMP accumulation assay (HEK293 cells over-expressing human GLP-1R); format: cell-based; conditions: HEK293/hGLP1R cells, 30 min
Method: The functional activity of the test compounds for agonizing GLP1R were evaluated using a cell-based assay. For the assay, HEK293 cells over-expressing full length human GLP-1R were utilized and the downstream cAMP accumulation was assessed as a measure of human GLP-1R stimulation. […] Diluted compounds were transferred to OptiPlates (100 nL/well) using an Echo liquid handler. HEK293/hGLP1R cells were thawed in 37° C. water-bath, washed 2 times with HBSS and re-suspended in assay buffer (HBSS+5 mM HEPES+500 μM IBMX+0.1% BSA). […] After centrifugation, the assay plate was incubated at 23° C. for 30 min. The reaction was terminated by adding 10 μL of lysis buffer containing D2-cAMP and a cAMP-antibody from the cyclic AMP immunoassay kit (Cisbio, Cat #62AM4PEJ). […] The levels of cAMP per well were calculated using a standard curve generated by GraphPad Prism. […] EC50 values were fitted from a four-parameter logistic equation over a 10-point response curve (GraphPad Prism).

HEK293/CRE-Luc cells = assay: cAMP responsive luciferase reporter assay, HEK293/CRE-Luc cells (no hGLP1R expression); format: cell-based, human
Source text: (§1) To test the activity of GLP1R agonist payloads, GLP1R agonist linker-payloads (LPs), and anti-GLP1R antibody tethered drug conjugates (ATDCs) of the disclosure, a cell-based cAMP responsive luciferase reporter assay was developed. To generate the assay cell line, the firefly luciferase gene was placed under the control of a cAMP response element (CRE) located upstream of a minimal promoter and transfected into HEK293 cells and referred to herein as HEK293/CRE-Luc cells.
(§2) Three-fold serial dilutions of free payloads or LPs were prepared in 100% DMSO, transferred to fresh assay media, and added to the cells at a final constant DMSO concentration of 0.2%. The last well in the plate served as a blank control containing only the assay media and 0.2% DMSO (untreated well) and was plotted as a continuation of the 3-fold serial dilution. Four to six hours later, luciferase activity was determined after the addition of One-Glo™ reagent (Promega, Cat #E6130) to each well. Relative light units (RLUs) were measured on an Envision luminometer (PerkinElmer) and EC50 values were determined using a four-parameter logistic equation over a 12-point dose response curve (GraphPad Prism). The signal to noise (S/N) was determined by taking the ratio of the highest RLU on the dose response curve to the RLU in the untreated wells.

human GLP1R [3] = molecular target: T1, human GLP1R; assay: cAMP responsive luciferase reporter assay, HEK293/CRE-Luc/hGLP1R cells; format: cell-based; conditions: for HEK293/CRE-LUC/hGLP1R S/N: highest RLU / RLU of untreated wells; for HEK293/CRE-LUC/hGLP1R Relative Potency (% P8 EC50) / HEK293/CRE-LUC/hGLP1R Relative Signal:Noise (% P8): relative to P8 of the same experiment
Source text: as §1, §2
GLP1R agonist linker payloads were conjugated to anti-hGLP1R antibodies via N-terminal heavy or light chain Q tags. Several resulting anti-GLP1R antibody tethered drug conjugates (ATDCs) were tested for activity in the HEK293/CRE-Luc/hGLP1R reporter assay as described above for the free GLP1R payload and linker-payload agonists.

[4] = Plasma stability of payloads and linker-payloads, human plasma; format: in vitro ADME; conditions: for half-life at 2 µM: human, pooled plasma, pH 7.4, payload properties table, species not given, read-out: Plasma stability t½ (converted)
Method: The plasma stability of payloads and linker payloads of the disclosure were measured. For the assay, pooled frozen plasma (human, mouse or monkey) was thawed in cold water or a 37° C. water bath prior to experiment. Plasma was centrifuged at 4000 rpm for 5 min if any clots were observed, they were subsequently removed. If required, the pH was adjusted to 7.4±0.1. For the preparation of compounds and positive controls, a 1 mM intermediate solution was prepared by diluting 10 μL of their stock solution with 90 μL DMSO; a 1 mM intermediate solution of the positive control (Propantheline) was prepared by diluting 10 μL of its stock solution with 90 μL ultrapure water. […] 98 μL of plasma was spiked with 2 μL of dosing solution (100 μM) to achieve the final concentration of 2 μM in duplicate. Samples were then incubated at 37° C. in a water bath. […] At each time point, 400 μL of stop solution (200 ng/mL tolbutamide plus 200 ng/mL labetalol in 50% ACN/MeOH) was added to precipitate protein and mixed thoroughly. Sample plates were then centrifuged at 4,000 rpm for 10 min. An aliquot of supernatant (50 μL) was transferred from each well and mixed with 100 μL ultra-pure water. The samples were then shaken at 800 rpm for approximately 10 min before submitting for LC-MS/MS analysis.

T1 sequence (P43220 24-463): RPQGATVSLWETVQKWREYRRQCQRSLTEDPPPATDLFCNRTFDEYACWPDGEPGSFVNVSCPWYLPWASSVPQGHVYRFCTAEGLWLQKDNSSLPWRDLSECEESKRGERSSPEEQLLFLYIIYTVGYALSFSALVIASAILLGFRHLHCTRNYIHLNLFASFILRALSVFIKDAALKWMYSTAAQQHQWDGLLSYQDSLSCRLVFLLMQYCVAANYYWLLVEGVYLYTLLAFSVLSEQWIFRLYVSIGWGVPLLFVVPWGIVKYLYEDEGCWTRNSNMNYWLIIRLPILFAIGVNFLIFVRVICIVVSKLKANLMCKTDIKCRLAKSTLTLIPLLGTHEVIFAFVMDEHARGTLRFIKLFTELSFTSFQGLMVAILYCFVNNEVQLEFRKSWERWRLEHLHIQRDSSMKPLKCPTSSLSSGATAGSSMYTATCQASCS
human glucagon-like peptide 2 receptor (GLP2R), sequence (O95838 whole entry): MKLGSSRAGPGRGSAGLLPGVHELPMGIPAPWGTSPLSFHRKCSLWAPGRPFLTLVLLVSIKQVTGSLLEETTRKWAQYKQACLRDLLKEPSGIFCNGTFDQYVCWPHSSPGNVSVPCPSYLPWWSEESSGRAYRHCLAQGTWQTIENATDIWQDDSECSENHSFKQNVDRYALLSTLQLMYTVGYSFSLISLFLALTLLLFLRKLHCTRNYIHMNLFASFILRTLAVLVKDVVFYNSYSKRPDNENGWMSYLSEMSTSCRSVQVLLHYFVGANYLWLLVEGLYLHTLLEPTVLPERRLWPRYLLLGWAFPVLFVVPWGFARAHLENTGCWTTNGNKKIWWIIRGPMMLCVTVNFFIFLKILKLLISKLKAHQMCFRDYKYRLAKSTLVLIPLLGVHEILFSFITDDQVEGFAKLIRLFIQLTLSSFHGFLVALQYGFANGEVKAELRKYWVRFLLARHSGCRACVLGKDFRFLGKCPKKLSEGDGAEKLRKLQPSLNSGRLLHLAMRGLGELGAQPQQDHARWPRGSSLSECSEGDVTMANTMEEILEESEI

Row | EC50 (human GLP1R [2]) | SMILES | CRE-dependent reporter activity [1] | EC50 (HEK293/CRE-Luc cells) | HEK293/CRE-LUC S/N (HEK293/CRE-Luc cells) | HEK293/CRE-LUC/hGLP1R S/N (human GLP1R [3]) | HEK293/CRE-LUC/hGLP1R Relative Potency (% P8 EC50) (human GLP1R [3]) | HEK293/CRE-LUC/hGLP1R Relative Signal:Noise (% P8) (human GLP1R [3]) | Human plasma stability assay T½ ([4]; tested for 2 hrs (B)) | half-life at 2 µM [4] | Human plasma stability assay T½ ([4]; tested for 1 day (A)) | Human plasma stability assay T½ ([4]; tested for 3 days (C))
1 |  | CC[C@H](C)[C@H](NC(=O)[C@H](Cc1ccccc1)NC(=O)[C@H](CC(=O)O)NC(=O)[C@H](CCCNC(=N)N)NC(=O)[C@H](C)NC(=O)[C@H](C)NC(=O)[C@H](CC(C)C)NC(=O)[C@H](CC(N)=O)NC(=O)[C@H](CC(=O)O)NC(=O)[C@H](CC(C)C)NC(=O)[C@@H](NC(=O)[C@@H](NC(=O)[C@H](CC(N)=O)NC(=O)[C@H](CCSC)NC(=O)[C@H](CCC(=O)O)NC(=O)[C@H](CC(=O)O)NC(=O)[C@H](CO)NC(=O)[C@H](Cc1ccccc1)NC(=O)[C@H](CO)NC(=O)CNC(=O)[C@H](CC(=O)O)NC(=O)[C@H](C)NC(=O)[C@@H](N)Cc1c[nH]cn1)[C@@H](C)O)[C@@H](C)CC)C(=O)N[C@@H](CC(N)=O)C(=O)N[C@@H](Cc1c[nH]c2ccccc12)C(=O)N[C@@H](CC(C)C)C(=O)N[C@H](C(=O)N[C@@H](CCC(N)=O)C(=O)N[C@H](C(=O)N[C@@H](CCCCN)C(=O)N[C@H](C(=O)N[C@H](C(=O)N[C@@H](CC(=O)O)C(=O)O)[C@@H](C)O)[C@@H](C)CC)[C@@H](C)O)[C@@H](C)CC [GLP2, reference compound] | activated individual cell lines as expected |  |  |  |  |  |  |  |  | 
2 | 0.458 nM | CCc1cc(OCCCCNC(=O)CNC(=O)CNC(=O)CNC(=O)CNC(=O)[C@H](CO[C@@H]2OC(CO)[C@@H](O)[C@H](O)C2O)NC(=O)CCNC(=O)OC[C@@H]2[C@@H]3CCC#CCC[C@@H]32)ccc1-c1ccc(C[C@H](NC(=O)[C@H](CC(=O)O)NC(=O)[C@H](CO)NC(=O)[C@@H](NC(=O)[C@](C)(Cc2ccccc2F)NC(=O)[C@@H](NC(=O)CNC(=O)[C@H](Cc2nn[nH]n2)NC(=O)C(C)(C)C(=O)NCCc2cnc[nH]2)[C@@H](C)O)[C@@H](C)O)C(=O)N[C@@H](CCCc2cc(C)cc(C)c2)C(N)=O)cc1 (stereo partly shown) [LP18, BCN-NHC2H4CO-(glucose) SG4-P9] |  |  |  |  |  |  |  |  |  | 
3 |  | CCc1cc(OCCCCN)ccc1-c1ccc(C[C@H](NC(=O)[C@H](CC(=O)O)NC(=O)[C@H](CO)NC(=O)[C@@H](NC(=O)[C@](C)(Cc2ccccc2F)NC(=O)[C@@H](NC(=O)CNC(=O)[C@H](Cc2nn[nH]n2)NC(=O)[C@H](C)NC(=O)[C@@H](N)Cc2cnc[nH]2)[C@@H](C)O)[C@@H](C)O)C(=O)N[C@@H](CCCc2cc(C)cc(C)c2)C(N)=O)cc1 [P10] (H-HA[Ala(1H-tetrazol-5-yl)]GT[αMePhe(2-F)]TSD[Bip(2'-Et,4'-O(CH2)4NH2)][Nva(5-(3,5-Me2Ph))]-NH2) |  | > 200 nM | 1.2 | 45.1 | 38.0% | 68.6% | 1.83 h | 1.8 h |  | 
4 |  | CCc1cc(OCCCCN)ccc1-c1ccc(C[C@H](NC(=O)[C@H](CC(=O)O)NC(=O)[C@H](CO)NC(=O)[C@@H](NC(=O)[C@](C)(Cc2ccccc2F)NC(=O)[C@@H](NC(=O)CNC(=O)[C@H](Cc2nn[nH]n2)NC(=O)CCCCCc2cnc[nH]2)[C@@H](C)O)[C@@H](C)O)C(=O)N[C@@H](CCCc2cc(C)cc(C)c2)C(N)=O)cc1 [P11] (X1-[Ala(1H-tetrazol-5-yl)]GT[αMePhe(2-F)]TSD[Bip(2'-Et,4'-O(CH2)4NH2)][Nva(5-(3,5-Me2Ph))]-NH2) |  | > 200 nM | 1.1 | 54.8 | 0.8% | 83.4% |  | > 57.8 h | >57.81 h | 
5 |  | CCc1cc(OCCCCN)ccc1-c1ccc(C[C@H](NC(=O)[C@H](CC(=O)O)NC(=O)[C@H](CO)NC(=O)[C@@H](NC(=O)[C@](C)(Cc2ccccc2F)NC(=O)[C@@H](NC(=O)CNC(=O)[C@H](Cc2nn[nH]n2)NC(=O)CNC(=O)CCc2c[nH]cn2)[C@@H](C)O)[C@@H](C)O)C(=O)N[C@@H](CCCc2cc(C)cc(C)c2)C(N)=O)cc1 [P12] (Desaminohistidyl-G[Ala(1H-tetrazol-5-yl)]GT[αMePhe(2-F)]TSD[Bip(2'-Et,4'-O(CH2)4NH2)][Nva(5-(3,5-Me2Ph))]-NH2) |  | > 200 nM | 1.2 | 76.4 | 46.5% | 116.2% |  | > 57.8 h | >57.81 h | 
6 |  | CCc1cc(OCCCCN)ccc1-c1ccc(C[C@H](NC(=O)[C@H](CC(=O)O)NC(=O)[C@H](CO)NC(=O)[C@@H](NC(=O)[C@](C)(Cc2ccccc2F)NC(=O)[C@@H](NC(=O)CNC(=O)[C@H](Cc2nn[nH]n2)NC(=O)[C@H](C)NC(=O)[C@H](Cc2c[nH]cn2)NC(=O)[C@@H](N)CCC(N)=O)[C@@H](C)O)[C@@H](C)O)C(=O)N[C@@H](CCCc2cc(C)cc(C)c2)C(N)=O)cc1 [P13] (H-QHA[Ala(1H-tetrazol-5-yl)]GT[αMePhe(2-F)]TSD[Bip(2'-Et,4'-O(CH2)4NH2)][Nva(5-(3,5-Me2Ph))]-NH2) |  | > 200 nM | 1.2 | 69.5 | 1.5% | 105.6% |  | 16.9 h | 16.9 h | 
7 |  | CCc1cc(OCCCCN)ccc1-c1ccc(C[C@H](NC(=O)[C@H](CC(=O)O)NC(=O)[C@H](CO)NC(=O)[C@@H](NC(=O)[C@](C)(Cc2ccccc2F)NC(=O)[C@@H](NC(=O)CNC(=O)[C@H](CCC(N)=O)NC(=O)C(C)(C)C(=O)NCCc2cnc[nH]2)[C@@H](C)O)[C@@H](C)O)C(=O)N[C@@H](CCCc2cc(C)cc(C)c2)C(N)=O)cc1 [P21] |  | > 200 nM | 1.3 | 58.8 | 0.7% | 89.5% |  | > 57.8 h |  | >173.4 h
8 |  | CCc1cc(OCCCCN)ccc1-c1ccc(C[C@H](NC(=O)[C@H](CC(=O)O)NC(=O)[C@H](CO)NC(=O)[C@@H](NC(=O)[C@](C)(Cc2ccccc2F)NC(=O)[C@@H](NC(=O)CNC(=O)[C@H](Cc2nn[nH]n2)NC(=O)C(C)(C)C(=O)NCCc2cnc[nH]2)[C@@H](C)O)[C@@H](C)O)C(=O)N[C@@H](CCCc2cc(C)cc(C)c2)C(=O)Nc2ccccc2)cc1 [P23] ({Malonyl(2,2-Me2,histaminyl)}-[Ala(1H-tetrazol-5-yl)]GT[αMePhe(2-F)]TSD[Bip(2'-Et,4'-O(CH2)4NH2)][Nva(5-(3,5-Me2Ph))]-NHPh) |  | > 200 nM | 1.6 | 57.1 | 103.0% | 86.9% | 10.74 h |  |  | 

From patent US20250161476A1 (REGENERON PHARMACEUTICALS, INC., priority 2020, published 2025)
